The values below come from US10730863B2, “Bridged bicyclic compounds as farnesoid X receptor modulators” (BRISTOL-MYERS SQUIBB COMPANY, priority 2017, dated 2020).

FXR, sequence (Q96RI1 262-486): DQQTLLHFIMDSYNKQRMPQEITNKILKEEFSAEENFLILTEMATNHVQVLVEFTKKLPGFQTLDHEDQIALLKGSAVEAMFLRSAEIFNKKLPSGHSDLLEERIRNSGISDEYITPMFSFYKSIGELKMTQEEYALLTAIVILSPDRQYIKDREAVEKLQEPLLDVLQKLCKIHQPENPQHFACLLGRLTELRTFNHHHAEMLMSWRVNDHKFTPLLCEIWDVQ

The experiment addresses FXR (Homo sapiens (Human), UniProt Q96RI1). The experiment is described as follows: FXR EC50 (FXR agonist activity reported with each example). Format: cell-based.
As a reminder, the EC50 is the concentration that produces a half-maximal response. The compound `O=C(O)c1cccc(-c2noc(C34CCC(OCc5c(-c6c(Cl)cncc6Cl)noc5C5CC5)(CC3)CC4)n2)c1` [Example 232, 3-(5-(4-((5-cyclopropyl-3-(3,5-dichloropyridin-4-yl)isoxazol-4-yl)methoxy)bicyclo[2.2.2]octan-1-yl)-1,2,4-oxadiazol-3-yl)benzoic acid] gave an EC50 of 100 nM.
The figure for `O=C(O)c1cc(-c2noc(C34CCC(OCc5c(-c6c(Cl)cncc6Cl)noc5C5CC5)(CC3)CC4)n2)ccc1F` [Example 233, 5-(5-(4-((5-cyclopropyl-3-(3,5-dichloropyridin-4-yl)isoxazol-4-yl)methoxy)bicyclo[2.2.2]octan-1-yl)-1,2,4-oxadiazol-3-yl)-2-fluorobenzoic acid] is 92 nM.
The figure for `COc1ccc(-c2nc(C34CCC(OCc5c(-c6c(Cl)cncc6Cl)noc5C5CC5)(CC3)CC4)no2)cc1C(=O)O` [Example 234, 5-(3-(4-((5-cyclopropyl-3-(3,5-dichloropyridin-4-yl)isoxazol-4-yl)methoxy)bicyclo[2.2.2]octan-1-yl)-1,2,4-oxadiazol-5-yl)-2-methoxybenzoic acid] is 190 nM; for `O=C(O)c1cc(-c2noc(C34CCC(OCc5c(-c6c(Cl)cncc6Cl)noc5C5CC5)(CC3)CC4)n2)cc(C(F)(F)F)c1` [Example 235, 3-(5-(4-((5-cyclopropyl-3-(3,5-dichloropyridin-4-yl)isoxazol-4-yl)methoxy)bicyclo[2.2.2]octan-1-yl)-1,2,4-oxadiazol-3-yl)-5-(trifluoromethyl)benzoic acid] it is 25 nM.
Compound `COc1ccc(-c2noc(C34CCC(OCc5c(-c6c(Cl)cncc6Cl)noc5C5CC5)(CC3)CC4)n2)cc1C(=O)NS(C)(=O)=O` [Example 236, 5-(5-(4-((5-cyclopropyl-3-(3,5-dichloropyridin-4-yl)isoxazol-4-yl)methoxy)bicyclo[2.2.2]octan-1-yl)-1,2,4-oxadiazol-3-yl)-2-methoxy-N-(methylsulfonyl)benzamide] displayed an EC50 of 26 nM.
The figure for `COc1c(C(=O)O)cccc1-c1noc(C23CCC(OCc4c(-c5c(Cl)cncc5Cl)noc4C4CC4)(CC2)CC3)n1` [Example 237, 3-(5-(4-((5-cyclopropyl-3-(3,5-dichloropyridin-4-yl)isoxazol-4-yl)methoxy)bicyclo[2.2.2]octan-1-yl)-1,2,4-oxadiazol-3-yl)-2-methoxybenzoic acid] is 27 nM; for `COc1c(F)cc(-c2noc(C34CCC(OCc5c(-c6c(Cl)cncc6Cl)noc5C5CC5)(CC3)CC4)n2)cc1C(=O)O` [Example 238, 5-(5-(4-((5-cyclopropyl-3-(3,5-dichloropyridin-4-yl)isoxazol-4-yl)methoxy)bicyclo[2.2.2]octan-1-yl)-1,2,4-oxadiazol-3-yl)-3-fluoro-2-methoxybenzoic acid] it is 21 nM; for `COc1cc(C(=O)O)cc(-c2noc(C34CCC(OCc5c(-c6c(Cl)cncc6Cl)noc5C5CC5)(CC3)CC4)n2)c1` [Example 239, 3-(5-(4-((5-cyclopropyl-3-(3,5-dichloropyridin-4-yl)isoxazol-4-yl)methoxy)bicyclo[2.2.2]octan-1-yl)-1,2,4-oxadiazol-3-yl)-5-methoxybenzoic acid] it is 79 nM.
The figure for `COc1ccc(-c2noc(C34CCC(OCc5c(-c6c(Cl)cncc6Cl)noc5C5CC5)(CC3)CC4)n2)cc1C(N)=O` [Example 240, 5-(5-(4-((5-cyclopropyl-3-(3,5-dichloropyridin-4-yl)isoxazol-4-yl)methoxy)bicyclo[2.2.2]octan-1-yl)-1,2,4-oxadiazol-3-yl)-2-methoxybenzamide] is 170 nM; for `COc1cc(-c2noc(C34CCC(OCc5c(-c6c(Cl)cncc6Cl)noc5C5CC5)(CC3)CC4)n2)cc(C(=O)O)c1F` [Example 241, 5-(5-(4-((5-cyclopropyl-3-(3,5-dichloropyridin-4-yl)isoxazol-4-yl)methoxy)bicyclo[2.2.2]octan-1-yl)-1,2,4-oxadiazol-3-yl)-2-fluoro-3-methoxybenzoic acid] it is 130 nM; for `Oc1ccc(-c2noc(C34CCC(OCc5c(-c6c(Cl)cncc6Cl)noc5C5CC5)(CC3)CC4)n2)cc1-c1nnn[nH]1` [Example 242, 4-(5-(4-((5-cyclopropyl-3-(3,5-dichloropyridin-4-yl)isoxazol-4-yl)methoxy)bicyclo[2.2.2]octan-1-yl)-1,2,4-oxadiazol-3-yl)-2-(1H-tetrazol-5-yl)phenol] it is 1400 nM.
The figure for `COc1cc(-c2noc(C34CCC(OCc5c(-c6c(Cl)cncc6Cl)noc5C5CC5)(CC3)CC4)n2)cc(C(=O)O)c1OC` [Example 243, 5-(5-(4-((5-cyclopropyl-3-(3,5-dichloropyridin-4-yl)isoxazol-4-yl)methoxy)bicyclo[2.2.2]octan-1-yl)-1,2,4-oxadiazol-3-yl)-2,3-dimethoxybenzoic acid] is 120 nM; for `COc1cc(C(=O)O)c(F)c(-c2noc(C34CCC(OCc5c(-c6c(Cl)cncc6Cl)noc5C5CC5)(CC3)CC4)n2)c1` [Example 244, 3-(5-(4-((5-cyclopropyl-3-(3,5-dichloropyridin-4-yl)isoxazol-4-yl)methoxy)bicyclo[2.2.2]octan-1-yl)-1,2,4-oxadiazol-3-yl)-2-fluoro-5-methoxybenzoic acid] it is 230 nM; for `COc1c(C(=O)O)cc(F)cc1-c1noc(C23CCC(OCc4c(-c5c(Cl)cncc5Cl)noc4C4CC4)(CC2)CC3)n1` [Example 245, 3-(5-(4-((5-cyclopropyl-3-(3,5-dichloropyridin-4-yl)isoxazol-4-yl)methoxy)bicyclo[2.2.2]octan-1-yl)-1,2,4-oxadiazol-3-yl)-5-fluoro-2-methoxybenzoic acid] it is 46 nM.
`COc1cc(C(=O)O)c(OC)c(-c2noc(C34CCC(OCc5c(-c6c(Cl)cncc6Cl)noc5C5CC5)(CC3)CC4)n2)c1` [Example 246, 3-(5-(4-((5-cyclopropyl-3-(3,5-dichloropyridin-4-yl)isoxazol-4-yl)methoxy)bicyclo[2.2.2]octan-1-yl)-1,2,4-oxadiazol-3-yl)-2,5-dimethoxybenzoic acid] yielded a concentration giving a half-maximal response (EC50) of 90 nM.
The figure for `O=C(O)c1cccc(-c2noc(C34CCC(OCc5c(-c6c(Cl)cncc6Cl)noc5C5CC5)(CC3)CC4)n2)n1` [Example 247, 6-(5-(4-((5-cyclopropyl-3-(3,5-dichloropyridin-4-yl)isoxazol-4-yl)methoxy)bicyclo[2.2.2]octan-1-yl)-1,2,4-oxadiazol-3-yl)picolinic acid] is 580 nM.
Compound `O=C(O)c1c(F)ccc(-c2noc(C34CCC(OCc5c(-c6c(Cl)cncc6Cl)noc5C5CC5)(CC3)CC4)n2)c1F` [Example 248, 3-(5-(4-((5-cyclopropyl-3-(3,5-dichloropyridin-4-yl)isoxazol-4-yl)methoxy)bicyclo[2.2.2]octan-1-yl)-1,2,4-oxadiazol-3-yl)-2,6-difluorobenzoic acid] returned an EC50 of 1100 nM.
The figure for `O=C(O)c1cc(-c2noc(C34CCC(OCc5c(-c6c(Cl)cncc6Cl)noc5C5CC5)(CC3)CC4)n2)ccn1` [Example 249, 4-(5-(4-((5-cyclopropyl-3-(3,5-dichloropyridin-4-yl)isoxazol-4-yl)methoxy)bicyclo[2.2.2]octan-1-yl)-1,2,4-oxadiazol-3-yl)picolinic acid] is 240 nM; for `COc1ccc(-c2noc(C34CCC(OCc5c(-c6c(Cl)cncc6Cl)noc5C5CC5)(CC3)CC4)n2)c(F)c1C(=O)O` [Example 250, 3-(5-(4-((5-cyclopropyl-3-(3,5-dichloropyridin-4-yl)isoxazol-4-yl)methoxy)bicyclo[2.2.2]octan-1-yl)-1,2,4-oxadiazol-3-yl)-2-fluoro-6-methoxybenzoic acid] it is 730 nM.
The figure for `CC(C)Oc1cc(C(=O)O)cc(-c2noc(C34CCC(OCc5c(-c6c(Cl)cncc6Cl)noc5C5CC5)(CC3)CC4)n2)c1` [Example 251, 3-(5-(4-((5-cyclopropyl-3-(3,5-dichloropyridin-4-yl)isoxazol-4-yl)methoxy)bicyclo[2.2.2]octan-1-yl)-1,2,4-oxadiazol-3-yl)-5-isopropoxybenzoic acid] is 16 nM.
The figure for `COc1ccc(-c2nc(C34CCC(OCc5c(-c6c(Cl)cncc6Cl)noc5C5CC5)(CC3)CC4)co2)cc1C(=O)O` [Example 252, 5-(4-(4-((5-cyclopropyl-3-(3,5-dichloropyridin-4-yl)isoxazol-4-yl)methoxy)bicyclo[2.2.2]octan-1-yl)oxazol-2-yl)-2-methoxybenzoic acid] is 86 nM; for `COc1ccc(-c2noc(C34CCC(OCc5c(-c6c(Cl)cncc6Cl)noc5C5CC5)(CC3)CC4)n2)nc1C(=O)O` [Example 253, 6-(5-(4-((5-cyclopropyl-3-(3,5-dichloropyridin-4-yl)isoxazol-4-yl)methoxy)bicyclo[2.2.2]octan-1-yl)-1,2,4-oxadiazol-3-yl)-3-methoxypicolinic acid] it is 740 nM; for `O=C(O)c1cc(-c2noc(C34CCC(OCc5c(-c6c(Cl)cncc6Cl)noc5C5CC5)(CC3)CC4)n2)ccc1C(F)(F)F` [Example 254, 5-(5-(4-((5-cyclopropyl-3-(3,5-dichloropyridin-4-yl)isoxazol-4-yl)methoxy)bicyclo[2.2.2]octan-1-yl)-1,2,4-oxadiazol-3-yl)-2-(trifluoromethyl)benzoic acid] it is 2000 nM.
For `COc1ccc(-c2nc(C34CCC(OCc5c(-c6c(Cl)cncc6Cl)noc5C5CC5)(CC3)CC4)cs2)cc1C(=O)O` [Example 255, 5-(4-(4-((5-cyclopropyl-3-(3,5-dichloropyridin-4-yl)isoxazol-4-yl)methoxy)bicyclo[2.2.2]octan-1-yl)thiazol-2-yl)-2-methoxybenzoic acid], the EC50 was found to be 18 nM.
The figure for `CC(C)Oc1ccc(-c2noc(C34CCC(OCc5c(-c6c(Cl)cncc6Cl)noc5C5CC5)(CC3)CC4)n2)cc1C(=O)O` [Example 256, 5-(5-(4-((5-cyclopropyl-3-(3,5-dichloropyridin-4-yl)isoxazol-4-yl)methoxy)bicyclo[2.2.2]octan-1-yl)-1,2,4-oxadiazol-3-yl)-2-isopropoxybenzoic acid] is 260 nM.
The compound `COc1cc(-c2noc(C34CCC(OCc5c(-c6c(Cl)cncc6Cl)noc5C5CC5)(CC3)CC4)n2)cc(C(=O)O)n1` [Example 257, 4-(5-(4-((5-cyclopropyl-3-(3,5-dichloropyridin-4-yl)isoxazol-4-yl)methoxy)bicyclo[2.2.2]octan-1-yl)-1,2,4-oxadiazol-3-yl)-6-methoxypicolinic acid] came in with an EC50 of 79 nM.
